± gives the expanded uncertainty stated by the source.
Assay: xn = mol fraction of the nth substance listed
Settings: 101 kPa, Liquid; for speed of sound: Sing-around technique in a fixed-path interferometer

Cc1ccccc1C [1,2-dimethylbenzene] + COC(C)(C)C
Settings | mass density [kg/m3] | speed of sound [m/s]
288.15 K, x2 = 0 | 883.36 ± 0.35 | 1381.3 ± 2.2
288.15 K, x2 = 0.052 | 876.722 ± 0.38 | 1374.2 ± 2.2
288.15 K, x2 = 0.101 | 870.811 ± 0.39 | 1361.2 ± 2.2
288.15 K, x2 = 0.203 | 857.652 ± 0.41 | 1332.7 ± 2.2
288.15 K, x2 = 0.303 | 844.603 ± 0.42 | 1302.7 ± 2.2
288.15 K, x2 = 0.401 | 831.766 ± 0.44 | 1274.2 ± 2.2
288.15 K, x2 = 0.499 | 818.201 ± 0.46 | 1243.3 ± 2.2
288.15 K, x2 = 0.604 | 803.537 ± 0.49 | 1212.8 ± 2.2
288.15 K, x2 = 0.707 | 788.841 ± 0.51 | 1179 ± 2.2
288.15 K, x2 = 0.8 | 775.294 ± 0.53 | 1148.4 ± 2.2
288.15 K, x2 = 0.9 | 760.339 ± 0.55 | 1119.5 ± 2.2
288.15 K, x2 = 0.95 | 752.593 ± 0.56 | 1099.1 ± 2.2
290.65 K, x2 = 0 | 881.265 ± 0.35 | 1371.8 ± 2.2
290.65 K, x2 = 0.052 | 874.606 ± 0.38 | 1364.9 ± 2.2
290.65 K, x2 = 0.101 | 868.675 ± 0.39 | 1350.7 ± 2.2
290.65 K, x2 = 0.203 | 855.478 ± 0.41 | 1322.1 ± 2.2
290.65 K, x2 = 0.303 | 842.386 ± 0.43 | 1292 ± 2.2
290.65 K, x2 = 0.401 | 829.505 ± 0.45 | 1263.3 ± 2.2
290.65 K, x2 = 0.499 | 815.897 ± 0.47 | 1232.4 ± 2.2
290.65 K, x2 = 0.604 | 801.177 ± 0.49 | 1201.5 ± 2.2
290.65 K, x2 = 0.707 | 786.421 ± 0.51 | 1167.7 ± 2.2
290.65 K, x2 = 0.8 | 772.825 ± 0.53 | 1136.8 ± 2.2
290.65 K, x2 = 0.9 | 757.801 ± 0.55 | 1107.9 ± 2.2
290.65 K, x2 = 0.95 | 750.025 ± 0.57 | 1087.4 ± 2.2
293.15 K, x2 = 0 | 879.168 ± 0.35 | 1362.2 ± 2.2
293.15 K, x2 = 0.052 | 872.486 ± 0.38 | 1354.8 ± 2.2
293.15 K, x2 = 0.101 | 866.535 ± 0.39 | 1340.3 ± 2.2
293.15 K, x2 = 0.203 | 853.3 ± 0.41 | 1311.6 ± 2.2
293.15 K, x2 = 0.303 | 840.168 ± 0.43 | 1281.4 ± 2.2
293.15 K, x2 = 0.401 | 827.242 ± 0.45 | 1252.5 ± 2.2
293.15 K, x2 = 0.499 | 813.586 ± 0.47 | 1221.6 ± 2.2
293.15 K, x2 = 0.604 | 798.814 ± 0.49 | 1190.3 ± 2.2
293.15 K, x2 = 0.707 | 783.998 ± 0.52 | 1156.6 ± 2.2
293.15 K, x2 = 0.8 | 770.35 ± 0.54 | 1125.5 ± 2.2
293.15 K, x2 = 0.9 | 755.264 ± 0.56 | 1096.5 ± 2.2
293.15 K, x2 = 0.95 | 747.451 ± 0.57 | 1075.9 ± 2.2
295.65 K, x2 = 0 | 877.069 ± 0.36 | 1351.8 ± 2.2
295.65 K, x2 = 0.052 | 870.364 ± 0.39 | 1344.5 ± 2.2
295.65 K, x2 = 0.101 | 864.394 ± 0.4 | 1329.8 ± 2.2
295.65 K, x2 = 0.203 | 851.12 ± 0.41 | 1301.1 ± 2.2
295.65 K, x2 = 0.303 | 837.944 ± 0.43 | 1270.7 ± 2.2
295.65 K, x2 = 0.401 | 824.973 ± 0.45 | 1241.8 ± 2.2
295.65 K, x2 = 0.499 | 811.273 ± 0.47 | 1210.7 ± 2.2
295.65 K, x2 = 0.604 | 796.444 ± 0.5 | 1179.3 ± 2.2
295.65 K, x2 = 0.707 | 781.567 ± 0.52 | 1145.4 ± 2.2
295.65 K, x2 = 0.8 | 767.869 ± 0.54 | 1114.1 ± 2.2
295.65 K, x2 = 0.9 | 752.717 ± 0.56 | 1085.1 ± 2.2
295.65 K, x2 = 0.95 | 744.871 ± 0.57 | 1064.4 ± 2.2
298.15 K, x2 = 0 | 874.968 ± 0.36 | 1341.5 ± 2.2
298.15 K, x2 = 0.052 | 868.242 ± 0.39 | 1334.2 ± 2.2
298.15 K, x2 = 0.101 | 862.253 ± 0.4 | 1319.6 ± 2.2
298.15 K, x2 = 0.203 | 848.937 ± 0.42 | 1290.6 ± 2.2
298.15 K, x2 = 0.303 | 835.714 ± 0.44 | 1260.1 ± 2.2
298.15 K, x2 = 0.401 | 822.702 ± 0.46 | 1231.1 ± 2.2
298.15 K, x2 = 0.499 | 808.953 ± 0.48 | 1199.9 ± 2.2
298.15 K, x2 = 0.604 | 794.069 ± 0.5 | 1168.2 ± 2.2
298.15 K, x2 = 0.707 | 779.131 ± 0.52 | 1134.3 ± 2.2
298.15 K, x2 = 0.8 | 765.379 ± 0.54 | 1102.7 ± 2.2
298.15 K, x2 = 0.9 | 750.16 ± 0.57 | 1073.7 ± 2.2
298.15 K, x2 = 0.95 | 742.284 ± 0.58 | 1052.9 ± 2.2
300.65 K, x2 = 0 | 872.865 ± 0.36 | 1331.2 ± 2.2
300.65 K, x2 = 0.052 | 866.116 ± 0.39 | 1323.9 ± 2.2
300.65 K, x2 = 0.101 | 860.108 ± 0.4 | 1309.4 ± 2.2
300.65 K, x2 = 0.203 | 846.749 ± 0.42 | 1280.2 ± 2.2
300.65 K, x2 = 0.303 | 833.484 ± 0.44 | 1249.6 ± 2.2
300.65 K, x2 = 0.401 | 820.426 ± 0.46 | 1220.3 ± 2.2
300.65 K, x2 = 0.499 | 806.626 ± 0.48 | 1189.1 ± 2.2
300.65 K, x2 = 0.604 | 791.685 ± 0.5 | 1157.2 ± 2.2
300.65 K, x2 = 0.707 | 776.688 ± 0.53 | 1123.2 ± 2.2
300.65 K, x2 = 0.8 | 762.882 ± 0.55 | 1091.4 ± 2.2
300.65 K, x2 = 0.9 | 747.591 ± 0.57 | 1062.2 ± 2.2
300.65 K, x2 = 0.95 | 739.686 ± 0.58 | 1041.5 ± 2.2
303.15 K, x2 = 0 | 870.759 ± 0.36 | 1321 ± 2.2
303.15 K, x2 = 0.052 | 863.985 ± 0.4 | 1313.7 ± 2.2
303.15 K, x2 = 0.101 | 857.959 ± 0.41 | 1299.2 ± 2.2
303.15 K, x2 = 0.203 | 844.558 ± 0.42 | 1269.8 ± 2.2
303.15 K, x2 = 0.303 | 831.25 ± 0.44 | 1239.1 ± 2.2
303.15 K, x2 = 0.401 | 818.144 ± 0.46 | 1209.7 ± 2.2
303.15 K, x2 = 0.499 | 804.296 ± 0.48 | 1178.4 ± 2.2
303.15 K, x2 = 0.604 | 789.298 ± 0.51 | 1146.3 ± 2.2
303.15 K, x2 = 0.707 | 774.237 ± 0.53 | 1112.1 ± 2.2
303.15 K, x2 = 0.8 | 760.378 ± 0.55 | 1080.2 ± 2.2
303.15 K, x2 = 0.9 | 745.002 ± 0.57 | 1050.7 ± 2.2
303.15 K, x2 = 0.95 | 737.076 ± 0.59 | 1030 ± 2.2
305.65 K, x2 = 0 | – | 1310.8 ± 2.2
305.65 K, x2 = 0.052 | – | 1303.6 ± 2.2
305.65 K, x2 = 0.101 | – | 1289 ± 2.2
305.65 K, x2 = 0.203 | – | 1259.5 ± 2.2
305.65 K, x2 = 0.303 | – | 1228.6 ± 2.2
305.65 K, x2 = 0.401 | – | 1199 ± 2.2
305.65 K, x2 = 0.499 | – | 1167.7 ± 2.2
305.65 K, x2 = 0.604 | – | 1135.3 ± 2.2
305.65 K, x2 = 0.707 | – | 1101 ± 2.2
305.65 K, x2 = 0.8 | – | 1069 ± 2.2
305.65 K, x2 = 0.9 | – | 1038.7 ± 2.2
305.65 K, x2 = 0.95 | – | 1018.6 ± 2.2

— the NIST ThermoML archive (doi:10.1016/j.fluid.2008.03.004)
